# Assay results as given in the supplement of paper PMC10307832.
# What was measured:
# Assay in all cases: relative viability (nuclei count vs DMSO), 5 days (fraction); higher = more cells survive
# [1] = compound: CNC(=O)c1ccccc1Sc1ccc2c(/C=C/c3ccccn3)n[nH]c2c1 [Axitinib] + Cc1cc(Nc2cc(N3CCN(C)CC3)nc(Sc3ccc(NC(=O)C4CC4)cc3)n2)n[nH]1 [Tozasertib] (partner 0.1 µM)
# How it was run: (§1)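 Lung cancer cell lines, seeded in 1536-well plates, were treated the following day by pin tool with a single drug or with five library-drug doses (not always all listed) in √10 steps on top of a fixed anchor-drug dose. Cells were fixed and nuclei stained in one step after 5 days, and nuclei were counted. Relative viability is the nuclei count for treated wells divided by that for vehicle wells, reported as medians of duplicate plates.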
# [2] = compound: CNC(=O)c1ccccc1Sc1ccc2c(/C=C/c3ccccn3)n[nH]c2c1 [Axitinib] + Cc1nc(Nc2ncc(C(=O)Nc3c(C)cccc3Cl)s2)cc(N2CCN(CCO)CC2)n1 [Dasatinib] (partner 0.075 µM)
# How it was run: as §1
# [3] = compound: Nc1nc(Nc2ccc3c(c2)CC[C@@H](N2CCCC2)CC3)nn1-c1cc2c(nn1)-c1ccccc1CCC2 [Bemcentinib] + Cc1nc(NC(=O)N2CCC[C@H]2C(N)=O)sc1-c1ccnc(C(C)(C)C(F)(F)F)c1 [Alpelisib] (partner 2 µM)
# How it was run: as §1
# [4] = compound: CNC(=O)c1ccccc1Sc1ccc2c(/C=C/c3ccccn3)n[nH]c2c1 [Axitinib] + CC(=O)Nc1cccc(-n2c(=O)n(C3CC3)c(=O)c3c(Nc4ccc(I)cc4F)n(C)c(=O)c(C)c32)c1 [Trametinib] (partner 0.02 µM)
# How it was run: as §1
cell line,measurement,setting,value
NCI-H650,relative viability,[1]; first compound 0.005 µM,0.714
same,relative viability,[1]; first compound 0.01581 µM,0.734
same,relative viability,[1]; first compound 0.05 µM,0.699
same,relative viability,[1]; first compound 0.1581 µM,0.693
same,relative viability,[1]; first compound 0.5 µM,0.78
same,relative viability,[2]; first compound 0.005 µM,0.496
same,relative viability,[2]; first compound 0.01581 µM,0.455
same,relative viability,[2]; first compound 0.05 µM,0.47
same,relative viability,[2]; first compound 0.1581 µM,0.436
same,relative viability,[2]; first compound 0.5 µM,0.396
same,relative viability,[3]; first compound 0.04 µM,1.01
same,relative viability,[3]; first compound 0.1265 µM,1.38
same,relative viability,[3]; first compound 0.4 µM,1.22
same,relative viability,[3]; first compound 1.265 µM,0.974
same,relative viability,[3]; first compound 4 µM,1.06
same,relative viability,[4]; first compound 0.005 µM,1.04
same,relative viability,[4]; first compound 0.01581 µM,1
same,relative viability,[4]; first compound 0.05 µM,0.893
same,relative viability,[4]; first compound 0.1581 µM,0.869
same,relative viability,[4]; first compound 0.5 µM,1.06
